How the values were obtained:
Type in all cases: in vivo
[1] = tested on: Sphaerotheca fuliginea; assay: Sphaerotheca test (cucumber)/preventive; conditions: preventive, 7 days after inoculation
Experimental: Sphaerotheca Test (Cucumber)/Preventive
Solvent: 49 parts by weight of N,N-Dimethylformamide
Emulsifier: 1 part by weight of Alkylarylpolyglycolether
To produce a suitable preparation of active compound, 1 part by weight of active compound is mixed with the stated amounts of solvent and emulsifier, and the concentrate is diluted with water to the desired concentration.
To test for preventive activity, young plants are sprayed with the preparation of active compound at the stated rate of application. One day after this treatment, the plants are inoculated with an aqueous spore suspension of Sphaerotheca fuliginea. Then the plants are placed in a greenhouse at approximately 23° C. and a relative atmospheric humidity of approximately 70%.
The test is evaluated 7 days after the inoculation. 0% means an efficacy which corresponds to that of the control, while an efficacy of 100% means that no disease is observed.

[2] = tested on: Spodoptera frugiperda; assay: Spodoptera frugiperda test (SPODFR spray application); conditions: 168 h, sprayed maize leaf sections, after 7 days
Excerpt: Spodoptera frugiperda—Test (SPODFR Spray Application)
(§1) Solvent: 78.0 parts by weight acetone • 1.5 parts by weight dimethylformamide
(§2) Emulsifier: 0.5 parts by weight alkylarylpolyglycolether
To produce a suitable preparation of the active compound, 1 part by weight of active compound is mixed with the stated amount of solvent and emulsifier, and the concentrate is dilutes with emulsifier-containing water to the desired concentration. Maize (Zea mais) leaf sections are sprayed with a preparation of the active ingredient of the desired concentration. Once dry, the leaf sections are infested with fall armyworm larvae (Spodoptera frugiperda).
After 7 days mortality in % is determined. 100% means that all caterpillars have been killed and 0% means that none of the caterpillars have been killed.

[3] = tested on: Phaedon cochleariae; assay: Phaedon cochleariae test (PHAECO spray application); conditions: 168 h, sprayed Chinese cabbage leaf-disks, after 7 days
Experimental: Phaedon cochleariae—Test; (PHAECO Spray Application)
Solvent: 78.0 parts by weight of acetone • • 1.5 parts by weight of dimethylformamide
Emulsifier: 0.5 parts by weight of alkylaryl polyglycolether
To produce a suitable preparation of active compound, 1 part by weight of active compound is mixed with the stated amount of solvent and emulsifier, and the concentrate is diluted with emulsifier-containing water to the desired concentration. Chinese cabbage (Brassica pekinesis) leaf-disks are sprayed with a preparation of the active ingredient of the desired concentration. Once dry, the leaf disks are infested with mustard beetle larvae (Phaedon cochleariae).
After 7 days mortality in % is determined. 100% means that all beetle larvae have been killed and 0% means that none of the beetle larvae have been killed.

[4] = tested on: Myzus persicae; assay: Myzus persicae test (MYZUPE spray application); conditions: 144 h, sprayed Chinese cabbage leaf-disks, after 6 days
Experimental: Myzus persicae—Test; (MYZUPE Spray Application)
as §1, §2
(§3) To produce a suitable preparation of active compound, 1 part by weight of active compound is mixed with the stated amount of solvent and emulsifier, and the concentrate is diluted with emulsifier-containing water to the desired concentration. Chinese cabbage (Brassica pekinesis) leaf-disks infected with all instars of the green peach aphid (Myzus persicae), are sprayed with a preparation of the active ingredient at the desired concentration.
After 6 days mortality in % is determined. 100% means that all aphids have been killed; 0% means that none of the aphids have been killed.

[5] = tested on: Tetranychus urticae; assay: Tetranychus urticae test; OP-resistant (TETRUR spray application); conditions: 120 h, spray on infested French beans, after 5 days
Experimental: Tetranychus urticae—Test; OP-Resistant (TETRUR Spray Application)
as §1, §2
as §3, with “French beans (Phaseolus vulgaris) which are heavily infested” for “Chinese cabbage (Brassica pekinesis) leaf-disks infected”, “stages” for “instars”, “two spotted spidermite (Tetranychus urticae),” for “green peach aphid (Myzus persicae),”
After 5 days mortality in % is determined. 100% means that all spider mites have been killed and 0% means that none of the spider mites have been killed.

Structure (SMILES) | Efficacy in % ([1]; 500 ppm) [%] | mortality at 500 g/ha ([2]; 500 g/ha) [%] | mortality at 500 g/ha [3] [%] | mortality at 500 g/ha [4] [%] | mortality at 500 g/ha ([5]; 500 g/ha) [%] | mortality at 20 g/ha ([5]; 20 g/ha) [%] | Efficacy in % ([1]; 250 ppm) [%] | mortality at 100 g/ha ([2]; 100 g/ha) [%]
Cc1ccc(-c2ccc(Cl)cc2)cc1C1=C(O)[C@H]2CC[C@H](C2)C1=O [Compound T1] | 95 | ≥ 80 | ≥ 80 | ≥ 80 | ≥ 80 | – | – | –
CC12CCC(C(=O)C(c3cc(-c4ccc(Cl)cc4)ccc3Cl)=C1O)C2(C)C (stereo not drawn) [T 114] | 90 | – | – | – | – | ≥ 80 | – | –
Cc1ccc(-c2ccc(Cl)cc2)cc1C1=C(O)C2(C)CCC(C1=O)C2(C)C (stereo not drawn) [T 115] | – | – | – | – | – | – | 80 | ≥ 80
